pIC50: −log10 of the molar value.
Experiments:
ACCX6 PDX tumors = assay: ACC patient-derived xenograft (PDX) model, daily oral MBZ; type: in vivo, mice; settings: for median survival: vehicle 42 days
Experimental: The effectiveness of mebendazole can be assayed in vivo using a patient derived xenograft mouse model. In patient derived xenograft mice, cancerous cells isolated from a cancer patient are implanted into an immunodeficient mouse, and allowed to form tumors. The mice are then administered mebendazole, and the effect on tumor size and mouse viability is assayed. As xenograft cancers can be implanted from a variety of patient sources, the effectiveness of mebendazole treatment on multiple cancers can be assayed in this manner. Human cancer cell lines such as those tested in vitro can similarly be used in mouse xenograft tumor models.
Despite a deepening understanding of the molecular events that lead to sustained tumor growth, there are currently no approved therapies for ACC. Identification of therapies for ACC has been hampered by the lack of ACC cell lines and transgenic mouse models. To circumvent these issues, the activity of MBZ was tested in several ACC patient-derived xenograft (PDX) models. Athymic nude mice were implanted subcutaneously with PDX tumors and treatment was initiated when tumors reached a size of 125-300 mm^3. Mice were randomized into three treatment groups to receive daily treatment with vehicle or MBZ at either 50 or 200 mg/kg for the duration of the study. Tumor size was measured twice weekly.

[1] = test system: gastric cancer primary cells isolated from patient-derived xenograft model GA0033; assay: Ex vivo 3D assay, cell viability (Cell Titer Glo); type: cell-based; settings: 168 h, 3D culture, seven days
Experimental: (§1) To evaluate the efficacy of MBZ in an additional model system, an ex vivo 3D assay using gastric cancer primary cells isolated from two patient-derived xenograft models (A. GA0033 and B. GA3155) was performed. Cells were seeded in 3D cultures and treated for seven days with MBZ at nine different doses in triplicate. Cell viability was determined using Cell Titer Glo. An IC50 was established using the PRISM software.

[2] = test system: gastric cancer primary cells isolated from patient-derived xenograft model GA3155; assay: Ex vivo 3D assay, cell viability (Cell Titer Glo); type: cell-based; settings: 168 h, 3D culture, seven days
Experimental: as §1

[3] = both the 50 and 200 mg/kg dose levels

Structure (SMILES): COC(=O)Nc1nc2ccc(C(=O)c3ccccc3)cc2[nH]1 [MBZ, methyl N-(6-benzoyl-1H-benzimidazol-2-yl)carbamate]
- median survival (ACCX6 PDX tumors; 50 mg/kg daily oral): 95.5 days
- median survival (ACCX6 PDX tumors; 200 mg/kg daily oral): 64.5 days
- tumor growth compared to vehicle (ACCX6 PDX tumors; [3]): Inhibition of tumor growth
- tumor volume (ACCX6 PDX tumors; [3]): decrease in tumor volume
- pIC50 [1]: 6.13
- pIC50 [2]: 6.12

Reference: patent US20190175560A1, “MEBENDAZOLE CANCER THERAPIES AND METHODS OF USE” (Shepherd Therapeutics, Inc., priority 2017, published 2019)
